Experimental data published in patent publication US12661355B2, “Compounds and methods for inducing UCP1 expression” (The Regents of the University of California, priority 2020, dated 2026).

How the values were obtained:
UCP1 = assay: Gene expression in immortalized human brown adipocytes; type: cell-based; conditions: 10 μM for 4 days
Procedure: (§1) Human immortalized brown and white preadipocytes were obtained from Dr. Yu-Hua Tseng (Joslin Diabetes Center, Harvard Medical School, USA). The generation of the two cell lines from human neck adipose tissue biopsies and immortalization was performed as previously described but from a different donor. Cells were cultured in high glucose DMEM supplemented with 10% FBS and antibiotics. Two days after reaching confluence, cells were treated with 30 μM biotin, 500 nM insulin, 17 μM pantothenate, 100 nM dexamethasone, 2 nM 3,3′,5-Triiodo-L-thyronine, 500 μM IBMX, 30 μM indomethacin and 1 μM rosiglitazone, for 12 days. Afterwards, cells were treated with 30 μM biotin, 500 nM insulin, 17 μM pantothenate and 2 nM 3,3′,5-Triiodo-L-thyronine (Maintenance media) for 2 days with end-point assays performed on day 18, and for 5 days with end-point assays performed on day 21, for the brown and white adipocytes cells, respectively.
Mouse RNA levels were measured by qPCR according to known methods. Data were normalized to B2m and Tbp reference genes. Human RNA was extracted using an RNA Mini Plus kit (Zymo) and gene expression determined by Taqman assay. The 1-step qPCR was run on a QuantStudio 12K Flex Real Time PCR System (ThermoFisher) using the following protocol: 50° C. for 5 minutes, 95° C. for 20 seconds, 40 cycles of 95° C. for 15 seconds and 60° C. for 60 seconds. […]

[1] = system: human brown adipocyte cell line; assay: Cellular respiration in human brown adipocytes; type: cell-based; conditions: 10 μM for 4 days
Procedure: as §1, with “Afterwards, cells were treated with 30 μM biotin, 500 nM insulin, 17 μM pantothenate and 2 nM 3,3′,5-Triiodo-L-thyronine (Maintenance media) for 2 days with end-point assays performed on day 18, and for 5 days with end-point assays performed on day 21, for the brown and white adipocytes cells, respectively.” left out
Cellular respiration was measured using a Seahorse XF24 or XF96 analyzer (Agilent) following known protocols Immortalized brown adipocytes were differentiated in 6-well plates and replated in the Seahorse XF24 plates at a density of 50,000 cells per well using trypsin and collagenase type II. […] Oxygen consumption rates were measured before and after the sequential injection of 1 μM oligomycin, 1 μM FCCP, and 0.5 μM rotenone/antimycin A. For these cells, results were normalized to cell count determined by nuclei fluorescent staining with Hoescht staining imaged on Cytation 5 Imaging Reader and analysis with Gen5 software (BioTek). […] Maximal respiration was determined after FCCP injection.

[2] = system: electron transport chain protein complexes; assay: Western blot of electron transport chain protein complexes in isolated mitochondria; type: cell-based, mouse; conditions: overnight 10 μM
Procedure: (§2) Cells and tissues were lysed in 10 mM Tris pH 7.5, 10 mM NaCl, 1 mM EDTA and 0.5% Triton X-100, supplemented with complete mini EDTA-free protease (Roche Diagnostics) and phosphatase (Cocktail 2 and 3, Sigma) inhibitors, followed by 10 second sonication. For analysis of mitochondrial proteins, mitochondria were isolated from cells by dual centrifugation, as described. Protein lysates were separated by SDS-PAGE and transferred to a nitrocellulose membrane. Transfer was confirmed by Ponceau staining (P7170, Sigma). After blocking in 5% milk, 0.1% Tween-20 in Tris-buffered saline (TBS), primary antibody was incubated overnight at 4° C. in 5% bovine serum albumin and 0.1% Tween-20 in TBS. Primary antibodies against ACTB (GTX109639, GeneTex), AKAP1 (5203, Cell Signaling), AKAP6 (07-087, Millipore), Cytochrome c (136F3, Cell Signaling), electron transport chain protein complexes (Total OXPHOS rodent WB antibody cocktail ab110413, Abcam), GAPDH (GTX100118, Genetex), active p38 MAPK (V1211, Promega), total p38 MAPK (8690, Cell Signaling), PGC1α (AB3242, Millipore), phospho-(Ser/Thr) PKA substrate (9621, Cell Signaling), PKA C-α (4782, Cell Signaling), PKA RII-β (ab75993, Abcam), and UCP1 (662045, Calbiochem) were used at 1:2000. […] Quantification using representative bands from the Ponceau staining was performed with ImageJ.

PKA = PKA activity ELISA, cell or tissue lysates treated 30 min; type: biochemical, mouse; conditions: 30 min; for PKA activity: brown adipocyte lysate
Procedure: PKA kinase activity was measured with an ELISA that utilized a synthetic peptide as substrate for PKA and a polyclonal antibody that recognizes the phosphorylated form of the substrate (ab139435, Abcam). PKA activity was measured in lysates from cultured brown adipocytes, mouse BAT, or liver. Cells and tissues were lysed in 20 mM MOPS, 5 mM EGTA, 2 mM EDTA, and 0.1% Triton X-100 supplemented with protease and phosphatase inhibitor as described above. Protein concentration was determined by Bradford assay and 10 μg of cells, 0.25 μg of BAT extract, or 0.5 μg of liver extract were assessed for PKA activation according to the manufacturer's instruction, with minor changes. Briefly, vehicle or Z160 was incubated with brown adipocyte cells overnight or with protein lysates for 30 min, followed by one wash before the primary antibody, 60 min incubation with the primary antibody, 30 min incubation with the secondary antibody, and by 10 min washing. Absorbance was measured after the substrate was added for 20-60 min, depending the intensity of the signal.

PKA subunits = assay: Western blot of mitochondria-associated proteins, PKA subunits; type: cell-based, mouse; conditions: brown adipocytes, 10 μM, after 6-8 h
Procedure: as §2, with “ImageJ. […]” for “ImageJ.”

CYTC and GAPDH = assay: Western blot of mitochondria-associated proteins, CYTC and GAPDH; type: cell-based, mouse; conditions: brown adipocytes, 10 μM
Procedure: as §2, with “ImageJ. […]” for “ImageJ.”

COc1ccc(NC(=O)CSc2nc3ccccc3c(=O)[nH]2)c(OC)c1 [Z160]
CIDEA expression (UCP1): increased expression | UCP1 expression (UCP1): ~7 fold | maximal respiration [1]: increased | mitochondrial respiration (primarily uncoupled respiration) [1]: increased | mitochondrial complex protein abundance [2]: slight enhancement | PKA activity (PKA; 25 μM): significant increase | PKA activity (PKA; 50 μM): significant increase | PKA activation (PKA; mouse BAT extract, 25 μM): stimulated PKA activation | PKA activation (PKA; mouse liver extract, 25 μM): stimulated PKA activation | mitochondrial association of PKA subunits (PKA subunits): increased mitochondrial association | levels of CYTC and GAPDH in the mitochondrial fraction (CYTC and GAPDH): not altered
